Measurements from ChEMBL document CHEMBL6120963, “Discovery of Novel PROTAC SIRT6 Degraders with Potent Efficacy against Hepatocellular Carcinoma” (J Med Chem, 2024).
The source made the active and inactive calls. No cut-off for these calls is given here.

Experiments:
[1] = target: T1, Protein cereblon/NAD-dependent protein deacylase sirtuin-6 (Homo sapiens, UniProt Q8N6T7+Q96SW2); assay: PROTAC activity at CRBN/SIRT6 in human SK-HEP1 cells assessed as induction of SIRT6 degradation at 200 nM incubated for 36 hrs by In-Cell ELISA relative to control; assay type: cell-based
T1 sequence (Q8N6T7 2-355 limits assumed): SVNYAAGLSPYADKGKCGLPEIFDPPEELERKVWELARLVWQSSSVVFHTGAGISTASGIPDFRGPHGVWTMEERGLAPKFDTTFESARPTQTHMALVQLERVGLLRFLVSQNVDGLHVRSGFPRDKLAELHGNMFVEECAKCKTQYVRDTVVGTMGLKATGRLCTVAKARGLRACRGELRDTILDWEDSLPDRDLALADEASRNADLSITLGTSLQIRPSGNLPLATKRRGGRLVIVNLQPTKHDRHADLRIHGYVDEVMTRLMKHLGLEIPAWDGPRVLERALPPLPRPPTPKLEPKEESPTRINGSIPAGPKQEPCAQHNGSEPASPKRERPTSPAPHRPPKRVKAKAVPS
T1 sequence (Q96SW2 whole entry partner): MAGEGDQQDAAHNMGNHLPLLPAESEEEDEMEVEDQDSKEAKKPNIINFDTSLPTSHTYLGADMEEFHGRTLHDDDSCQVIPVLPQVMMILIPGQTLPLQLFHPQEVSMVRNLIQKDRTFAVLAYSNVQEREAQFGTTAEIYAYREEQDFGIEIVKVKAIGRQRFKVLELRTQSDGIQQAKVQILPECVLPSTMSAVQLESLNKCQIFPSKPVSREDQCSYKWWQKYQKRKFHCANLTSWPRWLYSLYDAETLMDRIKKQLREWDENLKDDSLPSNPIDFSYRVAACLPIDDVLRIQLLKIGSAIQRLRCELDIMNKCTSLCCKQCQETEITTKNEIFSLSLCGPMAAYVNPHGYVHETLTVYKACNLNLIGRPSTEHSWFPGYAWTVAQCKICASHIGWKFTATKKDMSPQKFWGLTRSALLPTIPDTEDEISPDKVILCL

[2] = target: T1, Protein cereblon/NAD-dependent protein deacylase sirtuin-6; assay: PROTAC activity at CRBN/SIRT6 in human SK-HEP1 cells assessed as hook effect upto 5 uM incubated for 36 hrs by Western blot analysis; assay type: cell-based
SK-HEP1 [3] = assay: Effect on H3K18Ac expression in human SK-HEP1 cells at 0.002 to 1 uM incubated for 36 hrs by Western blot analysis; assay type: functional, cell-based; details: dose 0.002-1 µM
[4] = target: T1, Protein cereblon/NAD-dependent protein deacylase sirtuin-6; assay: PROTAC activity at CRBN/SIRT6 in human SK-HEP1 cells assessed as induction of SIRT6 degradation at 1 uM incubated for 24 to 36 hrs by Western blot analysis; assay type: cell-based; details: time 24-36 hrs
[5] = target: T1, Protein cereblon/NAD-dependent protein deacylase sirtuin-6; assay: PROTAC activity at CRBN/SIRT6 in human Huh-7 cells assessed as induction of SIRT6 degradation at 1 uM incubated for 24 hrs by Western blot analysis; assay type: cell-based
[6] = target: T1, Protein cereblon/NAD-dependent protein deacylase sirtuin-6; assay: PROTAC activity at CRBN/SIRT6 in human SK-HEP1 cells assessed as induction of SIRT6 degradation at 1 uM pretreated for 36 hrs followed by compound washout measured for 36 hrs by Western blot analysis; assay type: cell-based
SK-HEP1 [7] = assay: Cytotoxicity against human SK-HEP1 cells harboring SIRT6 siRNA incubated for 72 hrs by CCK8 assay; assay type: functional, cell-based
SK-HEP1 [8] = assay: Inhibition of colony formation in human SK-HEP1 cells at 5 uM incubated for 10 to 14 days with replacement of medium containing compounds on every 3 days combined with irradiation (3 Gy) by crystal violet staining based analysis; assay type: functional, cell-based; details: time 10-14 day
SK-HEP1 [9] = assay: Effect of SIRT1 mRNA expression in human SK-HEP1 cells at 2.5 uM incubated for 36 hrs by RT-qPCR analysis; assay type: functional, cell-based
SK-HEP1 [10] = assay: Effect of H2BC21 mRNA expression in human SK-HEP1 cells at 2.5 uM incubated for 36 hrs by RNA sequencing analysis; assay type: functional, cell-based
SK-HEP1 [11] = assay: Effect of TFRC mRNA expression in human SK-HEP1 cells at 2.5 uM incubated for 36 hrs by RNA sequencing analysis; assay type: functional, cell-based
SK-HEP1 [12] = assay: Effect of SIRT6 mRNA expression in human SK-HEP1 cells at 2.5 uM incubated for 36 hrs by RNA sequencing analysis; assay type: functional, cell-based
SK-HEP1 [13] = assay: Effect of genes related to DNA replication in human SK-HEP1 cells at 2.5 uM incubated for 36 hrs by GSEA analysis; assay type: functional, cell-based
SK-HEP1 [14] = assay: Effect of genes related to cell apoptosis in human SK-HEP1 cells at 2.5 uM incubated for 36 hrs by GSEA analysis; assay type: functional, cell-based
SK-HEP1 [15] = assay: Effect of genes related to mitochondrial matrix in human SK-HEP1 cells at 2.5 uM incubated for 36 hrs by GSEA analysis; assay type: functional, cell-based
[16] = target: T1, Protein cereblon/NAD-dependent protein deacylase sirtuin-6; assay: PROTAC activity at CRBN/SIRT6 in human SK-HEP1 cells assessed as induction of SIRT6 degradation at 2.5 uM incubated for 36 hrs by proteomic analysis; assay type: cell-based
SK-HEP1 [17] = assay: Downregulation of CCPG1 expression in human SK-HEP1 cells at 2.5 uM incubated for 36 hrs in presence of MG132; assay type: functional, cell-based
SK-HEP1 [18] = assay: Downregulation of NAIF1 expression in human SK-HEP1 cells at 2.5 uM incubated for 36 hrs in presence of MG132; assay type: functional, cell-based
[19] = target: T1, Protein cereblon/NAD-dependent protein deacylase sirtuin-6; assay: PROTAC activity at CRBN/SIRT6 in human SK-HEP1 cells assessed as induction of SIRT6 degradation at 2.5 uM incubated for 36 hrs by Western blot analysis; assay type: cell-based
[20] = target: T1, Protein cereblon/NAD-dependent protein deacylase sirtuin-6; assay: PROTAC activity at CRBN/SIRT6 in human SK-HEP1 cells assessed as disruption of CHD4 recruitment to DSB sites at 2.5 uM incubated for 36 hrs followed by VP16 treatment for 4 hrs by Western blot analysis; assay type: cell-based; details: time 40.0 hrs
[21] = target: T1, Protein cereblon/NAD-dependent protein deacylase sirtuin-6; assay: PROTAC activity at CRBN/SIRT6 in human SK-HEP1 cells assessed as disruption of CHD4 recruitment to DSB sites at 2.5 uM incubated for 36 hrs followed by sorafenib treatment for 4 hrs by Western blot analysis; assay type: cell-based; details: time 40.0 hrs
[22] = target: T1, Protein cereblon/NAD-dependent protein deacylase sirtuin-6; assay: PROTAC activity at CRBN/SIRT6 in human SK-HEP1 cells assessed as impairment in CHD4 foci formation by immunofluorescence based analysis; assay type: cell-based
SK-HEP1 [23] = assay: Induction of DNA damage in human SK-HEP1 cells assessed as long tail moment incubated for 36 hrs followed by irradiation (10 Gy) for 6 hrs by comet assay; assay type: functional, cell-based
[24] = Toxicity in BALB/c nude mouse xenografted with human SK-HEP1 cells assessed as body weight loss at 10 mg/kg treated for 28 to 30 days; assay type: organism-based; details: in vivo, time 28-30 day
[25] = target: T1, Protein cereblon/NAD-dependent protein deacylase sirtuin-6; assay: In vivo PROTAC activity of CRBN/SIRT6 in human SK-HEP1 cells xenografted in BALB/c nude mouse assessed as induction of SIRT6 degradation at 10 mg/kg treated for 28 to 30 days under irradiation (3 Gy); assay type: functional, organism-based; details: time 28-30 day
[26] = Toxicity in BALB/c nude mouse xenografted with human SK-HEP1 cells assessed as pathological damage in kidney at 10 mg/kg treated for 28 to 30 days by H and E staining based analysis; assay type: organism-based; details: in vivo, time 28-30 day
[27] = Toxicity in BALB/c nude mouse xenografted with human SK-HEP1 cells assessed as pathological damage in heart at 10 mg/kg treated for 28 to 30 days in presence of sorafenib by H and E staining based analysis; assay type: organism-based; details: in vivo, time 28-30 day
[28] = Toxicity in BALB/c nude mouse xenografted with human SK-HEP1 cells assessed as pathological damage in lungs at 10 mg/kg treated for 28 to 30 days in presence of sorafenib by H and E staining based analysis; assay type: organism-based; details: in vivo, time 28-30 day
[29] = Toxicity in BALB/c nude mouse xenografted with human SK-HEP1 cells assessed as pathological damage in kidney at 10 mg/kg treated for 28 to 30 days in presence of sorafenib by H and E staining based analysis; assay type: organism-based; details: in vivo, time 28-30 day
[30] = Toxicity in BALB/c nude mouse xenografted with human SK-HEP1 cells assessed as pathological damage in kidney at 10 mg/kg treated for 28 to 30 days under irradiation (3 Gy) by H and E staining based analysis; assay type: organism-based; details: in vivo, time 28-30 day
[31] = Toxicity in BALB/c nude mouse xenografted with human SK-HEP1 cells assessed as histopathological abnormalities in lungs at 10 mg/kg treated for 28 to 30 days under irradiation (3 Gy) by H and E staining based analysis; assay type: organism-based; details: in vivo, time 28-30 day
SK-HEP1 [32] = assay: Induction of apoptosis in human SK-HEP1 cells xenografted in BALB/c nude mouse assessed as increase in cleaved caspase-3 level at 10 mg/kg treated for 28 to 30 days under irradiation (3 Gy); assay type: functional, organism-based; details: time 28-30 day
SK-HEP1 [33] = assay: Induction of DNA damage in human SK-HEP1 cells xenografted in BALB/c nude mouse assessed as increase in gamma-H2AX level at 10 mg/kg treated for 28 to 30 days under irradiation (3 Gy); assay type: functional, organism-based; details: time 28-30 day
SK-HEP1 [34] = assay: Inhibition of cell proliferation of human SK-HEP1 cells xenografted in BALB/c nude mouse at 10 mg/kg treated for 28 to 30 days under irradiation (3 Gy); assay type: functional, organism-based; details: time 28-30 day

With `Nc1cc(N2CCN(CC3CCN(c4cc5c(cc4F)C(=O)N(C4CCC(=O)NC4=O)C5=O)CC3)CC2)ccc1[N+](=O)[O-]` (centres undefined) the Activity [1] was 67.7%, the Activity [2] was “inactive” and the Activity (SK-HEP1 [3]) was “No effect”. The Activity [4] was “Active; Reached A Plateau After 36 Hrs Of Treatment, But A Dramatic Reduction Observed”, the Activity [5] was “Active; Reached A Plateau After 36 Hrs Of Treatment” and the Activity [6] was “Not active; Sirt6 Level Slowly Recovered Within 24 Hrs After Treatment”. For the same compound, the Activity (SK-HEP1 [7]) was “inactive”, the inhibition (SK-HEP1 [8]) was “Not active; Exhibited Weaker Inhibition” and the Activity (SK-HEP1 [9]) was “No effect”. For the same compound, the Activity (SK-HEP1 [10]) was “Active”, the Activity (SK-HEP1 [11]) was “Active” and the Activity (SK-HEP1 [12]) was “No effect; The Mrna Level Did Not Markedly Change”. The Activity (SK-HEP1 [13]) was “Active”, the Activity (SK-HEP1 [14]) was “Active” and the Activity (SK-HEP1 [15]) was “Active”. The Activity [16] was “Active”, the Activity (SK-HEP1 [17]) was “inactive” and the Activity (SK-HEP1 [18]) was “inactive”. The Activity [19] was “Active”, the Activity [20] was “Active” and the Activity [21] was “Active”. The Activity [22] was “Active”, the Activity (SK-HEP1 [23]) was “Active” and the Activity [24] was “Non-toxic”. The Activity [25] was “Active”, the Activity [26] was “Non-toxic” and the Activity [27] was “Non-toxic”. For the same compound, the Activity [28] was “Non-toxic”, the Activity [29] was “Non-toxic” and the Activity [30] was “Non-toxic”. The Activity [31] was “Non-toxic”, the Activity (SK-HEP1 [32]) was “Active” and the Activity (SK-HEP1 [33]) was “Active”. For the same compound, the inhibition (SK-HEP1 [34]) was “Active”.
